Activity calls are given as the source filed them. No cut-off for these calls is given here.
Assays:
A2780 [1] = experiment: Induction of apoptosis in human A2780 cells assessed as necrotic cells in presence of SB203580 at 8 nM measured after 24 to 72 hrs by Annexin V-FITC/PI flow cytometry (reference value: 0.39%); format: functional; details: time 24-72 hrs
A2780 [2] = experiment: Induction of apoptosis in human A2780 cells assessed as late apoptotic cells in presence of SB203580 at 8 nM measured after 24 to 72 hrs by Annexin V-FITC/PI flow cytometry (reference value: 2.54%); format: functional; details: time 24-72 hrs
A2780 [3] = experiment: Antiproliferative activity against human A2780 cells assessed as number of fluorescent dots in presence of p53 SiRNA 1 at 4 nM measured after 24 hrs by KitkFluor555 Click-iT EdU Kit staining assay; format: functional, cell-based
A2780 [4] = experiment: Antiproliferative activity against human A2780 cells assessed as number of fluorescent dots in presence of SB203580 at 4 nM measured after 24 hrs by KitkFluor555 Click-iT EdU Kit staining assay; format: functional, cell-based
A2780 [5] = experiment: Induction of apoptosis in human A2780 cells assessed as late apoptotic cells in presence of p53 SiRNA 2 at 4 nM measured after 24 hrs by Annexin V-FITC/PI flow cytometry (reference value: 2.54%); format: functional
A2780 [6] = experiment: Induction of apoptosis in human A2780 cells assessed as increase in cleaved caspase 9 level measured at 5 to 20 nM by Western blot analysis; format: functional, cell-based; details: dose 5-20 nM, time 12-48 hrs, TDE = time-dependent effect
[7] = Toxicity in BALB/c-nu mouse subcutaneously inoculated with human A2780 cells assessed as morphological changes of lung at 3 to 5 mg/kg, ip administered every day for 20 days by HE staining analysis; format: organism-based; details: in vivo, sc, 480 h, dose 3-5 mg/kg, time 20 day
A2780 [8] = experiment: Induction of apoptosis in human A2780 cells assessed as viable cells at 8 nM measured after 24 to 72 hrs by Annexin V-FITC/PI flow cytometry (reference value: 94.2%); format: functional; details: time 24-72 hrs, read-out: Activity
A2780 [9] = experiment: Induction of apoptosis in human A2780 cells assessed as viable cells in presence of p53 SiRNA 2 at 4 nM measured after 24 hrs by Annexin V-FITC/PI flow cytometry (reference value: 94.2%); format: functional
A2780 [10] = experiment: In vivo antitumor activity against human A2780 cells subcutaneously inoculated in BALB/c-nu mouse assessed as reduction in tumor volume at 3 to 5 mg/kg, ip administered every day for 20 days; format: functional, organism-based; details: dose 3-5 mg/kg, time 20.0 day
A2780 [11] = experiment: Induction of p38 expression in human A2780 cells in presence of SB203580 at 5 to 20 nM measured after 24 hrs by Western blot analysis; format: functional, cell-based; details: dose 5-20 nM
SK-OV-3 = experiment: Cytotoxicity against human SK-OV-3 cells assessed as cell viability measured after 48 hrs by MTT assay; format: functional, cell-based; details: SK-OV-3, 48 h
A2780 [12] = experiment: Induction of apoptosis in human A2780 cells assessed as late apoptotic cells at 800 nM measured after 24 hrs by Annexin V-FITC/PI flow cytometry (reference value: 1.58%); format: functional
A2780 [13] = experiment: In vivo antitumor activity against human A2780 cells subcutaneously inoculated in BALB/c-nu mouse assessed as inhibition of tumor growth at 3 to 5 mg/kg, ip administered every day for 20 days; format: functional, organism-based; details: dose 3-5 mg/kg, time 20.0 day
A2780 [14] = experiment: Reduction in p62 expression in human A2780 cells at 5 to 20 nM measured after 24 hrs by Western blot analysis; format: functional, cell-based; details: dose 5-20 nM
A2780 [15] = experiment: Induction of apoptosis in human A2780 cells assessed as necrotic cells in presence of bafilomycin A1 at 800 nM measured after 24 hrs by Annexin V-FITC/PI flow cytometry (reference value: 0.18%); format: functional
[16] = Toxicity in BALB/c-nu mouse subcutaneously inoculated with human A2780 cells assessed as morphological changes of heart at 3 to 5 mg/kg, ip administered every day for 20 days by HE staining analysis; format: organism-based; details: in vivo, sc, 480 h, dose 3-5 mg/kg, time 20 day
A2780 [17] = experiment: Induction of apoptosis in human A2780 cells assessed as viable cells at 4 nM measured after 24 hrs by Annexin V-FITC/PI flow cytometry (reference value: 94.2%); format: functional; details: read-out: Activity
A2780 [18] = experiment: Cytotoxicity against human A2780 cells assessed as cell viability measured at 4 to 64 nM by MTT assay; format: functional, cell-based; details: dose 4-64 nM, time 24-72 hrs, TDE = time-dependent effect
A2780 [19] = experiment: Induction of apoptosis in human A2780 cells assessed as increase in cleaved caspase 3 level measured at 5 to 20 nM by Western blot analysis; format: functional, cell-based; details: dose 5-20 nM, time 12-48 hrs, TDE = time-dependent effect
A2780 [20] = experiment: Induction of apoptosis in human A2780 cells assessed as decrease in cleaved Bcl-xL level measured at 5 to 20 nM after 12 to 48 hrs by Western blot analysis; format: functional, cell-based; details: dose 5-20 nM, time 12-48 hrs
A2780 [21] = experiment: Induction of apoptosis in human A2780 cells assessed as early apoptotic cells at 800 nM measured after 24 hrs by Annexin V-FITC/PI flow cytometry (reference value: 2.17%); format: functional
A2780 [22] = experiment: Induction of apoptosis in human A2780 cells assessed as necrotic cells in presence of p53 SiRNA 1 at 4 nM measured after 24 hrs by Annexin V-FITC/PI flow cytometry (reference value: 0.39%); format: functional
A2780 [23] = experiment: Induction of apoptosis in human A2780 cells assessed as late apoptotic cells in presence of bafilomycin A1 at 800 nM measured after 24 hrs by Annexin V-FITC/PI flow cytometry (reference value: 1.58%); format: functional
A2780 [24] = experiment: Induction of cell cycle arrest in human A2780 cells assessed as accumulation of cells at S phase at 4 nM measured after 24 hrs by PI staining based ell Cycle Analysis Kit (KeyGEN) (reference value: 10%); format: functional
A2780 [25] = experiment: Induction of cell cycle arrest in human A2780 cells assessed as accumulation of cells at G2 phase at 1 nM measured after 24 hrs by PI staining based ell Cycle Analysis Kit (KeyGEN) (reference value: 22.2%); format: functional
A2780 [26] = experiment: Induction of apoptosis in human A2780 cells assessed as increase in cleaved PARP level measured at 5 to 20 nM by Western blot analysis; format: functional, cell-based; details: dose 5-20 nM, time 12-48 hrs, TDE = time-dependent effect
A2780 [27] = experiment: Induction of LC3II expression in human A2780 cells in presence of autophagy inhibitor bafilomycin A1 at 5 to 20 nM measured after 24 hrs by Western blot analysis; format: functional, cell-based; details: dose 5-20 nM
A2780 [28] = experiment: Antiproliferative activity against human A2780 cells assessed as number of fluorescent dots in presence of p53 SiRNA 1 in presence of bafilomycin A1 at 4 nM measured after 24 hrs by KitkFluor555 Click-iT EdU Kit staining assay; format: functional, cell-based
A2780 [29] = experiment: Induction of apoptosis in human A2780 cells assessed as viable cells in presence of SB203580 at 8 nM measured after 24 to 72 hrs by Annexin V-FITC/PI flow cytometry (reference value: 94.2%); format: functional; details: time 24-72 hrs
A2780 [30] = experiment: Induction of apoptosis in human A2780 cells assessed as viable cells in presence of p53 SiRNA 1 at 4 nM measured after 24 hrs by Annexin V-FITC/PI flow cytometry (reference value: 94.2%); format: functional

With CC(C)[C@]12O[C@H]1[C@@H]1O[C@]13[C@]1(O[C@H]1C[C@H]1C4=C(CC[C@@]13C)C(=O)OC4)[C@@H]2O [TRIPTOLIDE] the Activity (A2780 [1]) was 5.87%, the Activity (A2780 [2]) was 12% and the Activity (A2780 [3]) was “inactive”. For the same molecule, the Activity (A2780 [4]) was “inactive”, the Activity (A2780 [5]) was 14.4% and the Activity (A2780 [6]) was “Tde”. The Activity [7] was “Non-Toxic”, the viability at 0.008 µM (A2780 [8]) was 55.8% and the Activity (A2780 [9]) was 66.5%. For the same molecule, the Activity (A2780 [10]) was “Active”, the Activity (A2780 [11]) was “Active” and the IC50 (SK-OV-3) was 803 nM. For the same molecule, the Activity (A2780 [12]) was 9.01%, the Activity (A2780 [13]) was “Active” and the Activity (A2780 [14]) was “Active”. The Activity (A2780 [15]) was 0.75%, the Activity [16] was “Non-Toxic” and the viability at 0.004 µM (A2780 [17]) was 33.1%. For the same molecule, the Activity (A2780 [18]) was “Tde”, the Activity (A2780 [19]) was “Tde” and the Activity (A2780 [20]) was “Dose-Dependent Effect”. For the same molecule, the Activity (A2780 [21]) was 14.7%, the Activity (A2780 [22]) was 8.18% and the Activity (A2780 [23]) was 3.96%. For the same molecule, the Activity (A2780 [24]) was 30.5%, the Activity (A2780 [25]) was 15.4% and the Activity (A2780 [26]) was “Tde”. For the same molecule, the Activity (A2780 [27]) was “inactive”, the Activity (A2780 [28]) was “inactive” and the Activity (A2780 [29]) was 69%. It also gave an Activity (A2780 [30]) of 65.9%.
